Laboratory results as given in ChEMBL document CHEMBL5131392, “A novel ICG-labeled cyclic TMTP1 peptide dimer for sensitive tumor imaging and enhanced photothermal therapy in vivo” (Eur J Med Chem, 2022).
Values belong to the compound of their own block, whether it stands above or below them. Active and inactive are the calls of the source. The calls are words filed in the database; no cut-off is given here. Bridge positions count the residues as written; N and C are the ends. Square brackets hold non-standard residues; d marks the D form. Peptide text beside a SMILES is read from it. I, II: the chains in the order shown. * marks the point of attachment. X1 = CC1(C)C(/C=C/C=C/C=C/C=C2/N(CCCCCC(=O)*)c3ccc4ccccc4c3C2(C)C)=[N+](CCCCS(=O)(=O)[O-])c2ccc3ccccc3c21; PEG4 = NCCOCCOCCOCCOCCC(=O)O

What was measured:
[1] = Toxicity in BALB/c mouse allografted with mouse 4T1 cells assessed as histopathological change in liver at 100 uM, iv measured after 12 hrs followed by 2.5 W/cm2 NIR laser irradiation for 3 mins by hematoxylin and eosin staining based analysis; type: organism-based; settings: in vivo
[2] = Drug uptake in tumor of mouse 4T1 cells allografted in BALB/c mouse assessed as increase in fluorescence signal at 30 uM, iv measured after 12 to 48 hrs by IVIS spectrum in vivo imaging analysis; type: ADME, organism-based, Neoplasm; settings: time 12-48 hrs
4T1 [3] = test: Cytotoxicity against mouse 4T1 cells assessed as cell viability at higher concentration incubated for 24 hrs by CCK-8 assay relative to control; type: functional
4T1 [4] = test: Induction of apoptosis in mouse 4T1 cells allografted in BALB/c mouse assessed as increase in total apoptotic cells at 100 uM, iv measured after 12 hrs followed by 2.5 W/cm2 NIR laser irradiation for 3 mins by hematoxylin and eosin staining based analysis; type: functional, organism-based
4T1 [5] = test: Antitumor activity in mouse 4T1 cells allografted in BALB/c mouse assessed as increase in temperature of tumor site at 100 uM, iv measured after 12 hrs followed by 2.5 W/cm2 NIR laser irradiation for 3 mins by infrared thermal imaging analysis; type: functional
[6] = Toxicity in BALB/c mouse allografted with mouse 4T1 cells assessed as histopathological change in lung at 100 uM, iv measured after 12 hrs followed by 2.5 W/cm2 NIR laser irradiation for 3 mins by hematoxylin and eosin staining based analysis; type: organism-based; settings: in vivo
[7] = Drug uptake in mouse 4T1 cells assessed as increase in fluorescence signal measured after 1 hr by flow cytometry analysis; type: ADME, cell-based; settings: 4t1, 1 h
[8] = Drug uptake in lymph node of mouse 4T1 cells allografted in BALB/c mouse assessed as increase in fluorescence signal at 30 uM, iv measured after 24 to 48 hrs by NIR fluorescence imaging analysis; type: ADME, organism-based; settings: in vivo, time 24-48 hrs
4T1 [9] = test: Antitumor activity against mouse 4T1 cells allografted in BALB/c mouse assessed as inhibition of tumor growth at 100 uM, iv treated for 12 hrs followed by 2.5 W/cm2 NIR laser irradiation for 3 mins and measured every 2 days; type: functional, organism-based; settings: time 2.0 day
[10] = Half life in Sprague-Dawley rat at 100 uM, iv measured up to 24 hrs by IVIS spectrum imaging analysis; type: ADME, organism-based; settings: in vivo
[11] = Toxicity in BALB/c mouse allografted with mouse 4T1 cells assessed as histopathological change in kidney at 100 uM, iv measured after 12 hrs followed by 2.5 W/cm2 NIR laser irradiation for 3 mins by hematoxylin and eosin staining based analysis; type: organism-based; settings: in vivo
[12] = Toxicity in BALB/c mouse allografted with mouse 4T1 cells assessed as change in body weight at 100 uM, iv treated for 12 hrs followed by 2.5 W/cm2 NIR laser irradiation for 3 mins and measured every 2 days; type: organism-based; settings: in vivo, 48 h, time 2 day
[13] = Drug uptake in tumor of mouse 4T1 cells allografted in BALB/c mouse assessed as XPNPEP2 expression by […] based analysis; type: ADME, Neoplasm
4T1 [14] = test: Induction of apoptosis in mouse 4T1 cells allografted in BALB/c mouse assessed as increase in total necrotic cells at 100 uM, iv measured after 12 hrs followed by 2.5 W/cm2 NIR laser irradiation for 3 mins by hematoxylin and eosin staining based analysis; type: functional, organism-based
4T1 [15] = test: Induction of apoptosis in mouse 4T1 cells allografted in BALB/c mouse assessed as increase in total apoptotic cells at 100 uM, iv measured after 12 hrs followed by 2.5 W/cm2 NIR laser irradiation for 3 mins by TUNEL staining based analysis; type: functional, organism-based
[16] = Drug uptake in tumor of mouse 4T1 cells allografted in BALB/c mouse assessed as increase in fluorescence signal at 30 uM, iv measured after 12 hrs by NIR fluorescence imaging analysis; type: ADME, organism-based, Neoplasm; settings: in vivo
[17] = Biodistribution in BALB/c mouse assessed as increase in fluorescence signal at 30 uM, iv measured after 30 mins by NIR fluorescence imaging analysis; type: ADME, organism-based; settings: in vivo, 0.5 h
[18] = Toxicity in BALB/c mouse allografted with mouse 4T1 cells assessed as histopathological change in heart at 100 uM, iv measured after 12 hrs followed by 2.5 W/cm2 NIR laser irradiation for 3 mins by hematoxylin and eosin staining based analysis; type: organism-based; settings: in vivo
[19] = Drug uptake in lymph node of mouse 4T1 cells allografted in BALB/c mouse assessed as increase in ratio of fluorescence signal in tumor lymph node to normal lymph node at 30 uM, iv measured up to 48 hrs by NIR fluorescence imaging analysis; type: ADME, organism-based; settings: in vivo
[20] = Toxicity in BALB/c mouse allografted with mouse 4T1 cells assessed as histopathological change in spleen at 100 uM, iv measured after 12 hrs followed by 2.5 W/cm2 NIR laser irradiation for 3 mins by hematoxylin and eosin staining based analysis; type: organism-based; settings: in vivo
[21] = MRT 0 to t in Sprague-Dawley rat at 100 uM, iv measured up to 24 hrs by IVIS spectrum imaging analysis; type: ADME, organism-based; settings: in vivo
[22] = Drug accumulation in BALB/c mouse liver assessed as increase in fluorescence intensity at 30 uM, iv measured after 30 mins by NIR fluorescence imaging analysis; type: ADME, organism-based; settings: in vivo, 0.5 h
[23] = Drug uptake in tumor of mouse 4T1 cells allografted in BALB/c mouse assessed as increase in ratio of fluorescence signal in tumor to normal tissue at 30 uM, iv measured after 12 to 48 hrs by NIR fluorescence imaging analysis; type: ADME, organism-based, Neoplasm; settings: in vivo, time 12-48 hrs
[24] = Cmax in Sprague-Dawley rat at 100 uM, iv measured up to 24 hrs by IVIS spectrum imaging analysis; type: ADME, organism-based; parameters: time < 24 hrs, dose 100 µM, route iv; settings: in vivo
[25] = AUC 0 to t in Sprague-Dawley rat at 100 uM, iv measured up to 24 hrs by IVIS spectrum imaging analysis; type: ADME, organism-based; parameters: time < 24 hrs, dose 100 µM, route iv; settings: in vivo
[26] = Drug accumulation in BALB/c mouse kidney assessed as increase in fluorescence intensity at 30 uM, iv measured after 2 hrs by NIR fluorescence imaging analysis; type: ADME, organism-based; settings: in vivo
4T1 [27] = test: Upregulation of XPNPEP expression in mouse 4T1 cells by Western blot analysis; type: functional, cell-based

- Drug uptake [2]: Active
- Drug uptake [7]: Active
- Drug uptake [8]: Active
- half-life at 100 µM [10]: 5.9 h
- Drug uptake [16]: Active
- Drug uptake [17]: Active
- Drug uptake [19]: Active
- MRT last at 24 h, 100 µM [21]: 5.77 h
- Drug uptake [22]: Active
- T/C [23]: 40
- Cmax at 100 µM [24]: 212 nM
- AUC(0-t) at 24 h, 100 µM [25]: 1.29 µM·h
- Drug uptake [26]: Active
SMILES: CC(C)[C@@H]1NC(=O)[C@H](CC(N)=O)NC(=O)CNC(=O)[C@@H](NC(=O)CNC(=O)CCOCCOCCOCCOCCNC(=O)CC[C@H](NC(=O)CCCCCN2/C(=C/C=C/C=C/C=C/C3=[N+](CCCCS(=O)(=O)[O-])c4ccc5ccccc5c4C3(C)C)C(C)(C)c3c2ccc2ccccc32)C(=O)NCCOCCOCCOCCOCCC(=O)NCC(=O)N[C@H]2CSSC[C@@H](C(=O)O)NC(=O)CNC(=O)[C@H](CCC(N)=O)NC(=O)[C@H](CCCNC(=N)N)NC(=O)[C@H](C(C)C)NC(=O)[C@H](C(C)C)NC(=O)[C@H](CC(N)=O)NC(=O)CNC2=O)CSSC[C@@H](C(=O)O)NC(=O)CNC(=O)[C@H](CCC(N)=O)NC(=O)[C@H](CCCNC(=N)N)NC(=O)[C@H](C(C)C)NC1=O (I: X1-E[PEG4]GCGNVVRQGC-OH / II: [PEG4]GCGNVVRQGC-OH; amide I:1-II:N; disulfide I:4-I:12, II:3-II:11)
- Activity [1]: Non-Toxic
- cell viability (4T1 [3]): >90%
- Activity (4T1 [4]): Active
- T (4T1 [5]): 51 °C
- Activity [6]: Non-Toxic
- Activity (4T1 [9]): Active
- Activity [11]: Non-Toxic
- Activity [12]: Non-Toxic
- Drug uptake [13]: Active
- Activity (4T1 [14]): Active
- Activity (4T1 [15]): Active
- Activity [18]: Non-Toxic
- Activity [20]: Non-Toxic
- Activity (4T1 [27]): Active

- Drug uptake [2]: Active
SMILES: CC(C)[C@@H]1NC(=O)[C@H](CC(N)=O)NC(=O)CNC(=O)[C@@H](NC(=O)CNC(=O)CCOCCOCCOCCOCCNC(=O)CCCCCN2/C(=C/C=C/C=C/C=C/C3=[N+](CCCCS(=O)(=O)[O-])c4ccc5ccccc5c4C3(C)C)C(C)(C)c3c2ccc2ccccc32)CSSC[C@@H](C(=O)O)NC(=O)CNC(=O)[C@H](CCC(N)=O)NC(=O)[C@H](CCCNC(=N)N)NC(=O)[C@H](C(C)C)NC1=O ({X1-PEG4}-GCGNVVRQGC-OH; disulfide 2-10)
- T (4T1 [5]): 47 °C
- Activity (4T1 [9]): Active

- half-life at 100 µM [10]: 0.4 h
- MRT last at 24 h, 100 µM [21]: 0.251 h
- Cmax at 100 µM [24]: 57.6 nM
- AUC(0-t) at 24 h, 100 µM [25]: 0.0175 µM·h
SMILES: CC1(C)C(/C=C/C=C/C=C/C=C2\N(CCCCS(=O)(=O)[O-])c3ccc4ccccc4c3C2(C)C)=[N+](CCCCS(=O)(=O)[O-])c2ccc3ccccc3c21.[Na+] [INDOCYANINE GREEN]
- T (4T1 [5]): 40 °C
